Results published in US7884186B2, “Isotopically labeled trapping agent and method for identifying reactive metabolites” (Janssen Pharmaceutica NV, priority 2006, dated 2011).

system: human liver microsomal preparations (cytochrome P450 enzyme preparations); assay: Reactive metabolite trapping with compound of formula (I) / (I-IS) in human liver microsomal incubation, neutral loss (129 Da) LC-MS/MS; format: in vitro ADME; settings: 10 μM test compound, 1 mg/ml microsomal proteins, 1 mM 1:1 mixture of formula (I) and (I-IS), NADPH generating system, 60 min, 37° C.; neutral loss of 129 Da, doublet mass difference 8 Da
Method: All microsomal incubations described herein were performed at 37° C. in a water bath. The test compound was mixed with human liver microsomal preparations (cytochrome P450 enzyme preparations) in 50 mM potassium phosphate buffer (pH 7.4) supplemented with the non-isotopically labeled compound of formula (I) and the isotopically labeled compound of formula (I-S) that were pre-mixed at an equal molar ratio of 1:1. The resulting mixtures were pre-warmed at 37° C. for 5 min. To the reaction mixtures was then added the co-factor—NADPH generating system—(to initiate the reaction) to yield a final volume of 1000 μl.
The resulting reaction mixtures contained 10 μM test compounds, 1 mg/ml microsomal proteins, 1 mM mixture of non-isotopically labeled compound of formula (I) and isotopically labeled compound of formula (I-IS), 1.3 mM NADP^+, 3.3 mM glucose-6-phosphate, 0.4 U/ml glucose-6-phosphate dehydrogenase, 3.3 mM magnesium chloride.
After a 60 min incubation, the reactions were terminated by the addition of 150 μl of trichloroacetic acid (10%). The resulting mixtures were centrifuged at 10,000 g for 15 min at 4° C. to pellet the precipitated protein, and the supernatants were subjected to solid-phase extractions. Alternatively, the reaction mixtures were subjected to liquid-liquid extractions to recover the metabolites from supernatants.
MS analyses were performed on a Micromass (Manchester, UK) Quattro Micro triple quadrupole mass spectrometer. The ESI ion source was operated in the positive ion mode, and experimental parameters were set as follows: capillary voltage 3.2 kV, source temperature 120° C., desolvation temperature 300° C., sample cone voltage 26 V. Mass spectra collected in the neutral loss scanning mode were obtained by scanning over the range m/z 400-800 in 2.0 s.
For complete profiling of reactive metabolites, samples were first subjected to chromatographic separations with an Agilent 1100 HPLC system with an auto-sampler (Agilent Technologies, Palo Alto, Calif.), and eluents were introduced to the Quattro Micro triple quadrupole mass spectrometer operated in the neutral loss scanning mode. An Agilent Zorbax SB C18 column (2.1×50 mm) was used for the chromatographic separation. […] At 7 min, the column was flushed with 95% acetonitrile for 2 min before re-equilibration at initial conditions. LC-MS/MS analyses were carried out on 10-μl aliquots of cleaned samples. Data were processed using the Masslynx version 4.0 software from Micromass. After a positive peak was detected, MS/MS spectra were subsequently obtained to further confirm the structure of the adduct(s). To acquire CID (Collision Induced Dissociation) spectra, the mass spectrometer was operated in the multiple reaction monitoring (MRM) mode.

Row | Structure (SMILES) | components (reactive metabolite adducts) showing the characteristic isotopic doublet in the neutral loss scan
1 | O=C(O)Cc1ccccc1Nc1c(Cl)cccc1Cl [Diclofenac] | two of the components showed the expected isotope doublet
2 | COc1ccc2[nH]c([S+]([O-])Cc3ncc(C)c(OC)c3C)nc2c1 (stereo not drawn) [Omeprazole] | Only one component
3 | Cc1coc2c1CCC(C)C2 (stereo not drawn) [Menthofuran] | One component
4 | Cc1ccco1 [2-Methylfuran] | Two isomeric adducts
5 | c1ccoc1 [Furan] | displayed the characteristic isotopic doublet
6 | c1coc(-c2cccs2)c1 [2-(2-Thienyl)-furan] | showed the characteristic isotopic doublet
